The results in this text go back to patent publication US10611730B2, “Benzimidazolone and benzothiazolone compounds and their use as AMPA receptor modulators” (Janssen Pharmaceutica NV, priority 2015, dated 2020).

Sequence of TARP γ8 dependent AMPA receptor (GluA1o-g8 fusion channel) (P42261 other isoform, or with tags, fused parts or gaps): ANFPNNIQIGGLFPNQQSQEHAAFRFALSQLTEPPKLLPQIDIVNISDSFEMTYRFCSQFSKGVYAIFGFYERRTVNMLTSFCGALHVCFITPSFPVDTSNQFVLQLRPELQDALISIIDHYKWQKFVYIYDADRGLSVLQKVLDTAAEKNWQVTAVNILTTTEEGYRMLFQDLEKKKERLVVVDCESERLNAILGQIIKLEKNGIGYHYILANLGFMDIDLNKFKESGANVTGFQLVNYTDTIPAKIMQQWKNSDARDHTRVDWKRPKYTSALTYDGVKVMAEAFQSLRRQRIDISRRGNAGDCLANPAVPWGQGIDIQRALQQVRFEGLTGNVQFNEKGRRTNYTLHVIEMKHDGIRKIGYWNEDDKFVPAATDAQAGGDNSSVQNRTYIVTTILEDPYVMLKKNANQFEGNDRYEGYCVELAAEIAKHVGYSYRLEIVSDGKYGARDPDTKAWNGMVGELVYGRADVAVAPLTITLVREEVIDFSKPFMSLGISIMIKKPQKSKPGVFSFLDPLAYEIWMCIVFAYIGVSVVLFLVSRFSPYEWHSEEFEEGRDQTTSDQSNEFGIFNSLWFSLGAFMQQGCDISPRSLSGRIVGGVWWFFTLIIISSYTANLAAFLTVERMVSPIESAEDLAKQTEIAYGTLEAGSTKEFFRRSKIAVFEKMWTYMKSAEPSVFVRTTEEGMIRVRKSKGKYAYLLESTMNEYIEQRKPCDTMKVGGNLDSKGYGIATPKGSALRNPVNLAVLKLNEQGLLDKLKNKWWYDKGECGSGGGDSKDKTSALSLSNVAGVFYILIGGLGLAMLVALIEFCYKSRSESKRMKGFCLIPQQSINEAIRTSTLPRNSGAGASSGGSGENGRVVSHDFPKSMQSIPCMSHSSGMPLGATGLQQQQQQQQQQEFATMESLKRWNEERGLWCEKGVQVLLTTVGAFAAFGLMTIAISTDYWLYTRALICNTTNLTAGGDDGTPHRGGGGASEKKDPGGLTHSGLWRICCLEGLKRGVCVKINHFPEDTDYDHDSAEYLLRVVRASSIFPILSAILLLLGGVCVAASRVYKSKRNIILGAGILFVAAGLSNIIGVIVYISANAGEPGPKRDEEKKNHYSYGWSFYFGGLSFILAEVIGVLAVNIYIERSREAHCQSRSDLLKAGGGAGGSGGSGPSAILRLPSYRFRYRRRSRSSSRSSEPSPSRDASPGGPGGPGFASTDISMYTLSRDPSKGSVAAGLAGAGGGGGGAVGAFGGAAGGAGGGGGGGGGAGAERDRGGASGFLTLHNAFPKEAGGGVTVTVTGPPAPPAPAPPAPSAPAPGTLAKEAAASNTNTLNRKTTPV

This assay deals with TARP γ8 dependent AMPA receptor (GluA1o-g8 fusion channel) (Homo sapiens (Human), UniProt P42261+Q8WXS5). As to the kind of experiment: Calcium flux assay (FLIPR), HEK293 cells expressing GRIA1o-CACNG8 fusion. It counts as cell-based. Particulars: inhibition of calcium flux after 15 μM glutamate, read-out: GluR1-γ8 pIC50 (converted). From the text:
This assay was used to test compounds for their ability to inhibit TARP γ8 dependent AMPA receptor activity.
An in vitro assay was used to determine the potency of test compounds as inhibitors of the glutamate response of the channel formed by GluA1o-g8. To ensure a 1:1 stoichiometry of GluA1o and g8 subunits in the expressed channel, a fusion of the cDNAs for GRIA1o and CACNG8 was used. […] A clonal cell line in HEK293 cells stably expressing this construct, with a geneticin selection marker, was generated for use in this assay. Cell expressing the GRIAlo-CACNG8 fusion construct were grown in a monolayer in 96- or 384-well microtiter plates. […] The cells were then loaded with a calcium-sensitive dye (Calcium-5 or Calcium-6, Molecular Devices) and the test compounds at a range of concentrations.
The fluorescence in each well was normalized to the fluorescence of negative and positive control wells. […] The responses to glutamate as functions of the test compound concentrations were fitted to a four-parameter logistic function. The fitted parameter corresponding to the midpoint was taken to be the potency of inhibition of the compound.
Regarding `O=c1[nH]c2ccc(-c3ccccc3OCC3CC3)cc2[nH]1` [Example 13, 5-[2-(Cyclopropylmethoxy)phenyl]-1,3-dihydrobenzimidazol-2-one], the IC50 was 398 nM.

Consider `O=c1[nH]c2ccc(-c3cccc(OC4CC4)c3Cl)cc2[nH]1` [Example 109, 5-[2-Chloro-3-(cyclopropoxy)phenyl]-1,3-dihydrobenzimidazol-2-one], for which the IC50 is 39.8 nM.

`O=c1[nH]c2ccc(-c3cccc(OC(F)F)c3Cl)cc2[nH]1` [Example 113, 5-[2-Chloro-3-(difluoromethoxy)phenyl]-1,3-dihydrobenzimidazol-2-one]: the IC50 was 79.4 nM.

For `O=c1[nH]c2ccc(-c3c(Cl)cccc3-c3cccnc3)cc2[nH]1` [Example 165, 5-[2-Chloro-6-(3-pyridyl)phenyl]-1,3-dihydrobenzimidazol-2-one], the IC50 was 126 nM.

Regarding `Cc1c(CN2CCOC(C)(C)C2)cccc1-c1ccc2[nH]c(=O)[nH]c2c1` [Example 149, 5-[3-[(2,2-Dimethylmorpholin-4-yl)methyl]-2-methyl-phenyl]-1,3-dihydrobenzimidazol-2-one], the IC50 was 20 nM.

Take `Cc1c(-c2ccc3[nH]c(=O)[nH]c3c2)cccc1-c1nc(C2CC2)no1` [Example 201, 5-(3-(3-cyclopropyl-1,2,4-oxadiazol-5-yl)-2-methylphenyl)-1H-benzo[d]imidazol-2(3H)-one]: the IC50 is 10 nM.

Turning to `Cn1cc(-c2cccc(-c3ccc4[nH]c(=O)sc4c3)c2Cl)cn1` [Example 212, 6-(2-Chloro-3-(1-methyl-1H-pyrazol-4-yl)phenyl)benzo[d]thiazol-2(3H)-one], the IC50 was 200 nM.

For the compound `COC(=O)c1ccc(C)c(-c2ccc3[nH]c(=O)[nH]c3c2)c1` [Example 47, Methyl 4-methyl-3-(2-oxo-1,3-dihydrobenzimidazol-5-yl)benzoate], the IC50 is 501 nM.

In the case of `O=c1[nH]c2ccc(-c3ccccc3-c3ccccc3)cc2[nH]1` [Example 5, 5-(2-Phenylphenyl)-1,3-dihydrobenzimidazol-2-one], the IC50 was 100 nM.

For `O=c1[nH]c2ccc(-c3c(Cl)cccc3-c3ccccc3)cc2[nH]1` [Example 162, 5-(2-Chloro-6-phenyl-phenyl)-1,3-dihydrobenzimidazol-2-one], the IC50 is 20 nM.

In the case of `Cc1cccc(C(F)(F)F)c1-c1ccc2[nH]c(=O)[nH]c2c1` [Example 57, 5-[2-Methyl-6-(trifluoromethyl)phenyl]-1,3-dihydrobenzimidazol-2-one], the IC50 was 631 nM.

Consider `Cc1c(-c2ccc3[nH]c(=O)[nH]c3c2)cccc1-c1ncno1` [Example 199, 5-[2-Methyl-3-(1,2,4-oxadiazol-5-yl)phenyl]-1,3-dihydrobenzimidazol-2-one], for which the IC50 is 63.1 nM.

For `C=Cc1cccc(Cl)c1-c1ccc2[nH]c(=O)[nH]c2c1` [Example 161, 5-(2-Chloro-6-vinyl-phenyl)-1,3-dihydrobenzimidazol-2-one], the IC50 is 31.6 nM.

Regarding `N#CCc1ccc(Cl)c(-c2ccc3[nH]c(=O)[nH]c3c2)c1Cl` [Example 131, 2-[2,4-Dichloro-3-(2-oxo-1,3-dihydrobenzimidazol-5-yl)phenyl]acetonitrile], the IC50 is 2000 nM.

As to `CC(C)Oc1cccc(Cl)c1-c1ccc2[nH]c(=O)[nH]c2c1` [Example 91, 5-(2-Chloro-6-isopropoxy-phenyl)-1,3-dihydrobenzimidazol-2-one], the IC50 is 79.4 nM.

`N#Cc1c(-c2ccc3[nH]c(=O)[nH]c3c2)cccc1C(F)(F)F` [Example 65, 2-(2-Oxo-1,3-dihydrobenzimidazol-5-yl)-6-(trifluoromethyl)benzonitrile]: the IC50 is 1260 nM.

Consider `N#CC1(c2cccc(Cl)c2-c2ccc3[nH]c(=O)[nH]c3c2)CCC1` [Example 129, 1-[3-Chloro-2-(2-oxo-1,3-dihydrobenzimidazol-5-yl)phenyl]cyclobutanecarbonitrile], for which the IC50 was 794 nM.

Regarding `CNC(=O)Cc1c(-c2ccc3[nH]c(=O)[nH]c3c2)cccc1C(F)(F)F` [Example 78, N-Methyl-2-[2-(2-oxo-1,3-dihydrobenzimidazol-5-yl)-6-(trifluoromethyl)phenyl] acetamide], the IC50 was 200 nM.

On to `O=c1[nH]c2ccc(-c3c(Cl)ccc(CN4CCOCC4)c3Cl)cc2[nH]1` [Example 139, 5-[2,6-Dichloro-3-(morpholinomethyl)phenyl]-1,3-dihydrobenzimidazol-2-one], for which the IC50 was 251 nM.

As to `CC(C)n1nccc1-c1cccc(Cl)c1-c1ccc2[nH]c(=O)[nH]c2c1` [Example 175, 5-[2-Chloro-6-(2-isopropylpyrazol-3-yl)phenyl]-1,3-dihydrobenzimidazol-2-one], the IC50 was 1260 nM.

As for `O=c1[nH]c2cc(F)c(-c3c(Cl)cccc3OC(F)(F)F)cc2s1` [Example 210, 6-[2-Chloro-6-(trifluoromethoxy)phenyl]-5-fluoro-3H-1,3-benzothiazol-2-one], the IC50 was 63.1 nM.

`N#CCc1ccc(Cl)c(Cl)c1-c1ccc2[nH]c(=O)[nH]c2c1` [Example 122, 2-[3,4-Dichloro-2-(2-oxo-1,3-dihydrobenzimidazol-5-yl)phenyl]acetonitrile]: the IC50 was 7.94 nM.

Regarding `N#CC1(c2cccc(Cl)c2-c2ccc3[nH]c(=O)[nH]c3c2)CC1` [Example 128, 1-[3-Chloro-2-(2-oxo-1,3-dihydrobenzimidazol-5-yl)phenyl]cyclopropanecarbonitrile], the IC50 is 398 nM.

As for `N#Cc1ccc(Cl)c(-c2ccc3[nH]c(=O)[nH]c3c2)c1OC(F)(F)F` [Example 209, 4-Chloro-3-(2-oxo-1,3-dihydrobenzimidazol-5-yl)-2-(trifluoromethoxy)benzonitrile], the IC50 was 15.8 nM.

On to `O=c1[nH]c2ccc(-c3cccc(CN4CCOCC4)c3Cl)cc2[nH]1` [Example 141, 5-[2-Chloro-3-(morpholinomethyl)phenyl]-1,3-dihydrobenzimidazol-2-one], for which the IC50 is 1000 nM.

Consider `CC(C)(C)OC(=O)N1CC(Oc2cccc(Cl)c2-c2ccc3[nH]c(=O)[nH]c3c2)C1` [Example 100, tert-Butyl 3-[3-chloro-2-(2-oxo-1,3-dihydrobenzimidazol-5-yl)phenoxy]azetidine-1-carboxylate], for which the IC50 is 316 nM.

As for `O=c1[nH]c2ccc(-c3c(Cl)cccc3-c3ccncc3)cc2[nH]1` [Example 170, 5-[2-Chloro-6-(4-pyridyl)phenyl]-1,3-dihydrobenzimidazol-2-one], the IC50 was 316 nM.

With `O=c1[nH]c2ccc(-c3c(Cl)cccc3OCc3ccccc3)cc2[nH]1` [Example 99, 5-(2-Benzyloxy-6-chloro-phenyl)-1,3-dihydrobenzimidazol-2-one], the IC50 is 63.1 nM.

For the compound `O=c1[nH]c2ccc(-c3cccc(-n4ccnc4)c3Cl)cc2[nH]1` [Example 187, 5-(2-Chloro-3-imidazol-1-yl-phenyl)-1,3-dihydrobenzimidazol-2-one], the IC50 was 3160 nM.

As to `O=c1[nH]c2ccc(-c3c(Cl)cccc3Oc3cncs3)cc2[nH]1` [Example 101, 5-(2-Chloro-6-thiazol-5-yloxy-phenyl)-1,3-dihydrobenzimidazol-2-one], the IC50 is 316 nM.

`O=c1[nH]c2ccc(-c3c(Cl)cncc3Cl)cc2[nH]1` [Example 69, 5-(3,5-Dichloro-4-pyridyl)-1,3-dihydrobenzimidazol-2-one]: the IC50 is 501 nM.

As for `Cc1c(-c2ccc3[nH]c(=O)sc3c2)cccc1-c1ncno1` [Example 200, 6-[2-Methyl-3-(1,2,4-oxadiazol-5-yl)phenyl]-3H-1,3-benzothiazol-2-one], the IC50 was 2510 nM.

`C[C@H](Oc1cccc(Cl)c1-c1ccc2[nH]c(=O)[nH]c2c1)C(F)(F)F` (single isomer, unassigned) [Example 120, (S*)-5-[2-Chloro-6-(2,2,2-trifluoro-1-methyl-ethoxy)phenyl]-1,3-dihydrobenzimidazol-2-one]: the IC50 is 79.4 nM.

Consider `Cc1c(-c2ccc3[nH]c(=O)[nH]c3c2)cccc1C(F)(F)F` [Example 60, 5-[2-Methyl-3-(trifluoromethyl)phenyl]-1,3-dihydrobenzimidazol-2-one], for which the IC50 was 79.4 nM.

Turning to `Cc1cccc(C#N)c1-c1ccc2[nH]c(=O)[nH]c2c1` [Example 38, 3-Methyl-2-(2-oxo-1,3-dihydrobenzimidazol-5-yl)benzonitrile], the IC50 was 501 nM.

For the compound `N#Cc1c(Br)cccc1-c1ccc2[nH]c(=O)[nH]c2c1` [Example 63, 2-Bromo-6-(2-oxo-1,3-dihydrobenzimidazol-5-yl)benzonitrile], the IC50 is 631 nM.

Turning to `N#CCc1cccc(-c2ccc(F)cc2)c1-c1ccc2[nH]c(=O)[nH]c2c1` [Example 135, 2-[3-(4-Fluorophenyl)-2-(2-oxo-1,3-dihydrobenzimidazol-5-yl)phenyl]acetonitrile], the IC50 was 20 nM.

With `O=c1[nH]c2ccc(-c3c(Cl)cccc3-c3cncc(C(F)(F)F)c3)cc2[nH]1` [Example 169, 5-[2-Chloro-6-[5-(trifluoromethyl)-3-pyridyl]phenyl]-1,3-dihydrobenzimidazol-2-one], the IC50 was 251 nM.

On to `Cc1c(-c2cccc(Cl)c2-c2ccc3[nH]c(=O)[nH]c3c2)cnn1C` [Example 177, 5-[2-Chloro-6-(1,5-dimethylpyrazol-4-yl)phenyl]-1,3-dihydrobenzimidazol-2-one], for which the IC50 is 794 nM.

As for `COc1cnccc1-c1cccc(Cl)c1-c1ccc2[nH]c(=O)[nH]c2c1` [Example 171, 5-[2-Chloro-6-(3-methoxy-4-pyridyl)phenyl]-1,3-dihydrobenzimidazol-2-one], the IC50 is 1000 nM.
